Columns and labels:
Type in all cases: cell-based
human TLR7 = target: T1, human TLR7 (Homo sapiens, UniProt Q9NYK1); assay: TLR7 inhibition reporter assay (HEK-Blue cells, SEAP reporter, gardiquimod stimulation); conditions: HEK-Blue cells overexpressing human TLR7, SEAP reporter, gardiquimod 7.5 μM
T1 construct: host or cells: HEK-Blue cells
T1 sequence (Q9NYK1 27-1049): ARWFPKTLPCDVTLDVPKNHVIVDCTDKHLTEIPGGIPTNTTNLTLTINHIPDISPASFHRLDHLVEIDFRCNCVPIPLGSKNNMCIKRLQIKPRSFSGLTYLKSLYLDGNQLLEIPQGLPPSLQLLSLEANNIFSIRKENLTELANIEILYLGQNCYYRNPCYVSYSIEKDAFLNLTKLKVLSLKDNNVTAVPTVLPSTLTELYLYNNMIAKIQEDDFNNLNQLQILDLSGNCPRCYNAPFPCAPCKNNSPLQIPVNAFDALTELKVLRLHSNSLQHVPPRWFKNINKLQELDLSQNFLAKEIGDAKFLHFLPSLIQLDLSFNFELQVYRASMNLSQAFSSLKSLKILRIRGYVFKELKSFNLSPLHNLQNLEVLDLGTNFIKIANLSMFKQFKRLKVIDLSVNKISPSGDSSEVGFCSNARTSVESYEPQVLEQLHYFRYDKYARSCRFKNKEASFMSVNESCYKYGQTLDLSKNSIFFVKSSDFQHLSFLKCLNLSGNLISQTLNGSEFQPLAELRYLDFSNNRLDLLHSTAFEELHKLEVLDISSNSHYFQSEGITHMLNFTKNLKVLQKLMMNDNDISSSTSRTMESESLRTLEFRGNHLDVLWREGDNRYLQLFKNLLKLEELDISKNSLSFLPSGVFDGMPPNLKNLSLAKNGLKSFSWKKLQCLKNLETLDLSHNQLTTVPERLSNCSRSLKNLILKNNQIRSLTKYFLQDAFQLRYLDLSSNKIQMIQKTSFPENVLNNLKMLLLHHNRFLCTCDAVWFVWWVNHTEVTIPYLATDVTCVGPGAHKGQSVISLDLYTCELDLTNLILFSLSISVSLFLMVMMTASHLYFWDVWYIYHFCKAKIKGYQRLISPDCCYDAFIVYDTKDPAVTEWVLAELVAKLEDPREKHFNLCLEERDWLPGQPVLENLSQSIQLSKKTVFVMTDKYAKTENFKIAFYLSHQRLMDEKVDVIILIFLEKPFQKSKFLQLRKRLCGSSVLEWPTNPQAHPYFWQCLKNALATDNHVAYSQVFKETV
Procedure, shortened: (§1)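 HEK-Blue cells overexpressing human TLR7, TLR8 or TLR9, with an NF-κB/AP-1-driven SEAP reporter, pre-treated 30 min at room temperature with compound (0.05 nM-50 μM final). Stimulated with 7.5 μM gardiquimod (TLR7), 15.9 μM R848 (TLR8) or 5 nM ODN2006 (TLR9), then 22 h at 37° C. SEAP read with HEK-Blue Detection; % inhibition set against agonist+DMSO and known-inhibitor wells.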

human TLR8 = target: T2, human TLR8 (Homo sapiens, UniProt Q9NR97); assay: TLR8 inhibition reporter assay (HEK-Blue cells, SEAP reporter, R848 stimulation); conditions: HEK-Blue cells overexpressing human TLR8, SEAP reporter, R848 15.9 μM
T2 construct: host or cells: HEK-Blue cells
T2 sequence (Q9NR97 27-1041): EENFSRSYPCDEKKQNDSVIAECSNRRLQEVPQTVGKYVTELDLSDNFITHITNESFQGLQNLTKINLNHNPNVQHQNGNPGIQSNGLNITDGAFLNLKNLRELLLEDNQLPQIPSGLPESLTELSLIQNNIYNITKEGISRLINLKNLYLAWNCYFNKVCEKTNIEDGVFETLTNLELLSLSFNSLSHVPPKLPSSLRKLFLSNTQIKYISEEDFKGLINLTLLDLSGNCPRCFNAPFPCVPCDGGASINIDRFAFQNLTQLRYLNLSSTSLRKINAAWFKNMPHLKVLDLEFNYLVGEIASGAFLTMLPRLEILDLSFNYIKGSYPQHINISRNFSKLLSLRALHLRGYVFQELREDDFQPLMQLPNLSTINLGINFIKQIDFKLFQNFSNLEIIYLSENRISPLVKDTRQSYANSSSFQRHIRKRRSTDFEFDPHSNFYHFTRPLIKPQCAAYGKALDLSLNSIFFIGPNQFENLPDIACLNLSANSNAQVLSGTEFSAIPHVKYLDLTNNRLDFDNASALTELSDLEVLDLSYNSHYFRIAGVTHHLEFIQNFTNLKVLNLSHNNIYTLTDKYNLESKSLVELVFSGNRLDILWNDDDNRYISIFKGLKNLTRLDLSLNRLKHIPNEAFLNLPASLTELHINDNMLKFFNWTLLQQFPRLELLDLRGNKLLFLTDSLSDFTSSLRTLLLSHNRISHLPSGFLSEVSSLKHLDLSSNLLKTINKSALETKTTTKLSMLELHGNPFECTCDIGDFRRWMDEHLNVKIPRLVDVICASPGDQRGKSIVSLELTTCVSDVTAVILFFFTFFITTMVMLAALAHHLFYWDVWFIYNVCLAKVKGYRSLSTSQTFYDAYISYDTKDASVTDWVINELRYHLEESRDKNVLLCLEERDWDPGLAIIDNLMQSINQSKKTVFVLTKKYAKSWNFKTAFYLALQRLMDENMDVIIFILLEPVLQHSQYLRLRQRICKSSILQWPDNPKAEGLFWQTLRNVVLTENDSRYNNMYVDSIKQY
Procedure, shortened: as §1

human TLR9 = target: T3, human TLR9 (Homo sapiens, UniProt Q9NR96); assay: TLR9 inhibition reporter assay (HEK-Blue cells, SEAP reporter, ODN2006 stimulation); conditions: HEK-Blue cells overexpressing human TLR9, SEAP reporter, ODN2006 5 nM
T3 construct: host or cells: HEK-Blue cells
T3 sequence (Q9NR96 26-1032): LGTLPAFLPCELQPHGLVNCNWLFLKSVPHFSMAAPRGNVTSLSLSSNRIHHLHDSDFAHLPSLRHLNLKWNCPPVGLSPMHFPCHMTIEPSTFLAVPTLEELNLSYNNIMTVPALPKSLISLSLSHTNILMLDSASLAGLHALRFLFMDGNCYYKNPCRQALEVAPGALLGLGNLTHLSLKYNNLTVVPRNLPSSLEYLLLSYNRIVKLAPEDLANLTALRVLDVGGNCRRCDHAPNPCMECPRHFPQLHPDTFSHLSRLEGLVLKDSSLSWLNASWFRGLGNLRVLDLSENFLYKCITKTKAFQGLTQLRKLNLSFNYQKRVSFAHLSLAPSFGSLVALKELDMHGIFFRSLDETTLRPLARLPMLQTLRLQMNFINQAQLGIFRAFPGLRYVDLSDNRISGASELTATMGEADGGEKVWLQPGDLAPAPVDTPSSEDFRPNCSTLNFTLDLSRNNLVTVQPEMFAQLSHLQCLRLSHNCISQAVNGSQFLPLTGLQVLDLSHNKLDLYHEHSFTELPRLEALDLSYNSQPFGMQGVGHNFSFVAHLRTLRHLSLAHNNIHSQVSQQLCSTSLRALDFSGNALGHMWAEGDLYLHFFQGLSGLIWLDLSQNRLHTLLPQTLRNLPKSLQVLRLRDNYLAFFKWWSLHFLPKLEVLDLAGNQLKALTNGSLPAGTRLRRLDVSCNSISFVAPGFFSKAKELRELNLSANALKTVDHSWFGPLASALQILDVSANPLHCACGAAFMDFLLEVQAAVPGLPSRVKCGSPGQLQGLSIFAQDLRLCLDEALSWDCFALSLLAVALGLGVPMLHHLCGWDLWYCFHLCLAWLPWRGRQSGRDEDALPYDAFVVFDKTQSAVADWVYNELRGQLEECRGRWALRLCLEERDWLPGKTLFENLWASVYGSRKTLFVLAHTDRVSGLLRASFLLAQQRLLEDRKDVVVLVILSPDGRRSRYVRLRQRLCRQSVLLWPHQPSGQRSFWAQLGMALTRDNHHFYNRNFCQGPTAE
Procedure, shortened: as §1

Cc1cc(-c2[nH]nc(C(=O)NCC3CN(CC(C)(C)C)CCO3)c2C(C)C)cn2ncnc12 (stereo not drawn) [Example 144]
IC50 (human TLR7): 7.26 nM | IC50 (human TLR8): 3.56 nM | IC50 (human TLR9): 15200 nM

Cc1cc(-c2[nH]nc(C(=O)NCC3CN(CC(C)(C)C)CCO3)c2C(C)C)cn2ncnc12 (stereo not drawn) [Example 145]
IC50 (human TLR7): 60.3 nM | IC50 (human TLR8): 41.6 nM | IC50 (human TLR9): > 50000 nM

COCC(C)N[C@H]1CC[C@H](NC(=O)c2n[nH]c(-c3cc(C)c4ncnn4c3)c2C(C)C)CC1 (stereo partly drawn) [Example 146]
IC50 (human TLR7): 19.7 nM | IC50 (human TLR8): 0.92 nM | IC50 (human TLR9): 16300 nM

COCC(C)N[C@H]1CC[C@@H](NC(=O)c2n[nH]c(-c3cc(C)c4ncnn4c3)c2C(C)C)CC1 (stereo partly drawn) [Example 147]
IC50 (human TLR7): 90.1 nM | IC50 (human TLR8): 5.67 nM | IC50 (human TLR9): 18800 nM

Cc1cc(-c2[nH]nc(C(=O)N[C@H]3CC[C@H](NC(C)C(C)(C)C)CC3)c2C(C)C)cn2ncnc12 (stereo partly drawn) [Example 148]
IC50 (human TLR7): 11.8 nM | IC50 (human TLR8): 9.93 nM | IC50 (human TLR9): > 50000 nM

Cc1cc(-c2[nH]nc(C(=O)N[C@H]3CC[C@H](NCC4(C)COC4)CC3)c2C(C)C)cn2ncnc12 [Example 149]
IC50 (human TLR7): 108 nM | IC50 (human TLR8): 98.5 nM | IC50 (human TLR9): > 50000 nM

Cc1cc(-c2[nH]nc(C(=O)N[C@H]3CC[C@@H](NC(C)C(C)(C)C)CC3)c2C(C)C)cn2ncnc12 (stereo partly drawn) [Example 150]
IC50 (human TLR7): 0.57 nM | IC50 (human TLR8): 0.39 nM | IC50 (human TLR9): 2830 nM

Cc1cc(-c2[nH]nc(C(=O)N[C@H]3CC[C@@H](NCC4(C)COC4)CC3)c2C(C)C)cn2ncnc12 [Example 151]
IC50 (human TLR7): 49.2 nM | IC50 (human TLR8): 60 nM | IC50 (human TLR9): 23400 nM

CCC(C)N1CCC(NC(=O)c2n[nH]c(-c3cc(C)c4ncnn4c3)c2C(C)C)CC1 (stereo not drawn) [Example 152]
IC50 (human TLR7): 13.7 nM | IC50 (human TLR8): 31.6 nM | IC50 (human TLR9): 20900 nM

Cc1cc(-c2[nH]nc(C(=O)NC3CCN(C4CCOCC4)CC3)c2C(C)C)cn2ncnc12 [Example 153]
IC50 (human TLR7): 27.8 nM | IC50 (human TLR8): 6.62 nM | IC50 (human TLR9): 22300 nM

Cc1cc(-c2[nH]nc(C(=O)NC3CN(CC4(C)COC4)C3)c2C(C)C)cn2ncnc12 [Example 154]
IC50 (human TLR7): 11.9 nM | IC50 (human TLR8): 3.33 nM | IC50 (human TLR9): 9310 nM

Cc1cc(-c2[nH]nc(C(=O)NC3CN(C(C)C)C3)c2C(C)C)cn2ncnc12 [Example 155]
IC50 (human TLR7): 41.5 nM | IC50 (human TLR8): 21.5 nM | IC50 (human TLR9): > 50000 nM

Cc1cc(-c2[nH]nc(C(=O)NC3CN(C)C3)c2C(C)C)cn2ncnc12 [Example 156]
IC50 (human TLR7): 1.72 nM | IC50 (human TLR8): 0.09 nM | IC50 (human TLR9): 10900 nM

COc1ncc(CN2CCC(NC(=O)c3n[nH]c(-c4cc(C)c5ncnn5c4)c3C(C)C)CC2)cn1 [Example 157]
IC50 (human TLR7): 37.4 nM | IC50 (human TLR8): 11.9 nM | IC50 (human TLR9): 16400 nM

Cc1cc(-c2[nH]nc(C(=O)NC3CCN(Cc4ncn(C)n4)CC3)c2C(C)C)cn2ncnc12 [Example 158]
IC50 (human TLR7): 8.95 nM | IC50 (human TLR8): 31 nM | IC50 (human TLR9): 14300 nM

Cc1cc(-c2[nH]nc(C(=O)NC3CN(Cc4ncn(C)n4)C3)c2C(C)C)cn2ncnc12 [Example 159]
IC50 (human TLR7): 8.79 nM | IC50 (human TLR8): 4.78 nM | IC50 (human TLR9): 6870 nM

Cc1cc(-c2[nH]nc(C(=O)N[C@@H]3CCCN(C)C3)c2C(C)C)cn2ncnc12 [Example 160]
IC50 (human TLR7): 0.61 nM | IC50 (human TLR8): 0.06 nM | IC50 (human TLR9): 5300 nM

Cc1cc(-c2[nH]nc(C(=O)N[C@@H]3CCCN(C(C)C)C3)c2C(C)C)cn2ncnc12 [Example 161]
IC50 (human TLR7): 18.1 nM | IC50 (human TLR8): 14.7 nM | IC50 (human TLR9): 17000 nM

Cc1cc(-c2[nH]nc(C(=O)N[C@H]3CCCN(C)C3)c2C(C)C)cn2ncnc12 [Example 162]
IC50 (human TLR7): 2.6 nM | IC50 (human TLR8): 15.7 nM | IC50 (human TLR9): 20300 nM

Cc1cc(-c2[nH]nc(C(=O)N[C@H]3CCCN(C(C)C)C3)c2C(C)C)cn2ncnc12 [Example 163]
IC50 (human TLR7): 1.59 nM | IC50 (human TLR8): 20.6 nM | IC50 (human TLR9): 9400 nM

CCN1CCC[C@H](NC(=O)c2n[nH]c(-c3cc(C)c4ncnn4c3)c2C(C)C)C1 [Example 164]
IC50 (human TLR7): 1.32 nM | IC50 (human TLR8): 4.43 nM | IC50 (human TLR9): 15600 nM

Cc1cc(-c2[nH]nc(C(=O)N[C@H]3CCCN(CC4=NC(C)N=N4)C3)c2C(C)C)cn2ncnc12 (stereo partly drawn) [Example 165]
IC50 (human TLR7): 1.61 nM | IC50 (human TLR8): 14.4 nM | IC50 (human TLR9): 22800 nM

Cc1cc(-c2[nH]nc(C(=O)N[C@H]3CCCN(C4COC4)C3)c2C(C)C)cn2ncnc12 [Example 166]
IC50 (human TLR7): 0.88 nM | IC50 (human TLR8): 0.87 nM | IC50 (human TLR9): 383 nM

Cc1cc(-c2[nH]nc(C(=O)NC3CCN(CCC(F)(F)F)CC3)c2C(C)C)cn2ncnc12 [Example 169]
IC50 (human TLR7): 4.17 nM | IC50 (human TLR8): 17 nM | IC50 (human TLR9): 9810 nM

CNCCN1CCC(NC(=O)c2n[nH]c(-c3cc(C)c4ncnn4c3)c2C(C)C)CC1 [Example 170]
IC50 (human TLR7): 2.38 nM | IC50 (human TLR8): 4.65 nM | IC50 (human TLR9): 1760 nM
